According to patent publication US20210275443A1, “SUSTAINED-RELEASE INJECTION PREPARATION CONTAINING DONEPEZIL DERIVATIVE” (NANJING NORATECH PHARMACEUTICAL CO., LTD., priority 2018, published 2021):

Details: after i.m. administration of the suspension
Method: There were 3 animals in each group. […] The whole blood was centrifuged to collect plasma, which was transferred to a 96-well plate, and stored at −20° C. for detection by LC-MS/MS. The drug concentration at each sampling time was determined by measuring the standard curve of reference donepezil in plasma.

Compound: CCCCCCC(=O)OC1=C(CC2CCN(Cc3ccccc3)CC2)Cc2cc(OC)c(OC)cc21 [donepezil heptanoate, Donepezil Heptanoate]
- Metabolism of the prodrug into donepezil after administration: rapidly metabolized into donepezil
